Data: patent US20080085889A1, “Amidomethyl-Substituted 1-(Carboxyalkyl) Cyclopentyl-Carbonylamino-Benzazepine-N-Acetic Acid Compounds, Process and Intermediate Products for Their Preparation and Pharmaceutical Compositions Containing Them” (SOLVAY PHARMACEUTICALS GmbH, priority 2003, published 2008)
Values belong to the compound of their own block, whether it stands above or below them.

Columns and labels:
[1] = biological target: T1, His6-tagged hSEP ectodomain (Homo sapiens, UniProt Q495T6); assay: In vitro investigation of the hSEP-inhibitory action (fluorescence-quenched Big-ET-1 analogue, HPLC); type: biochemical
T1 construct: His6-tagged hSEP ectodomain; His6; purchased Innogenetics, Ghent, Belgium
T1 sequence (Q495T6 49-779 limits assumed): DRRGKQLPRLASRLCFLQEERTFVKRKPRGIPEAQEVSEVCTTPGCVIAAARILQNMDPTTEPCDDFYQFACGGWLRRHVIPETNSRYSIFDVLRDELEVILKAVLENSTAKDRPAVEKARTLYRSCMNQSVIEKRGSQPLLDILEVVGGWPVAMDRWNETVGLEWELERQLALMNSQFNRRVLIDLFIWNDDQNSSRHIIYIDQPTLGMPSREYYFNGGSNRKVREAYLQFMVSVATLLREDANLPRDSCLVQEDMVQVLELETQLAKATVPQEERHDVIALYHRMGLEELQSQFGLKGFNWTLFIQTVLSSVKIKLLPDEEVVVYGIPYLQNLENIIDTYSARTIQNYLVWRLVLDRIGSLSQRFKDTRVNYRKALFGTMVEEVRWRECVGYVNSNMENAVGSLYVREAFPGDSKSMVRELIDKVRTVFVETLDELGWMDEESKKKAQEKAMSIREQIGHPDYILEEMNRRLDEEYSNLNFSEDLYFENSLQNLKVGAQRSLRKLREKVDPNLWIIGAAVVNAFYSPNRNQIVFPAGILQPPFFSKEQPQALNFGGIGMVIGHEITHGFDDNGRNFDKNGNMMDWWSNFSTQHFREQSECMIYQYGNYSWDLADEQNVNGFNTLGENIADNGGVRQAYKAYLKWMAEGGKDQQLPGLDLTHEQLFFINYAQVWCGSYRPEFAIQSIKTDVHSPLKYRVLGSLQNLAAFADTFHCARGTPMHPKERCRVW
Outline: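 Performed as for the NEP assay, with HPLC analysis and 10 nM phosphoramidon as the standard inhibitor. IC50 is the compound concentration blocking 50% of hSEP enzymatic activity.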

[2] = test system: maximal SAP response to Big-ET; assay: In vivo inhibition of maximal SAP response to Big-ET in anesthetized rats after oral administration; design: species or system Rats (Sprague-Dawley); details: oral by gavage, 100 μmol/kg, 1 h before Big-ET challenge; mean ± standard error; negative = inhibition
Protocol: Rats (Sprague-Dawley, CRLD=Charles River) were anaesthetised with 1 ml/kg Rompun/Ketavet 1:1. A pressure transducer (Statham) was inserted into the carotid artery to measure blood pressure.
For oral testing, the substances (or vehicle) were given by gavage at doses of 100 μmol/kg each, 1 h before the Big-ET challenge, and blood pressure and heart rate were monitored as described above.
The inhibition of maximal SAP response to Big-ET in anesthetized rats following oral administration of the test substances of Formula I is set forth in the following Table 3c: […]
Data given in table 3c as negative values indicate an inhibitory effect. Values are means from 3-6 independent series of experiments ±standard error.

[3] = biological target: T2, soluble, human recombinant NEP (Homo sapiens, UniProt P08473); assay: In-vitro investigation of the NEP inhibitory action (fluorescence-quenched Big-ET-1 analogue, HPLC); type: biochemical
T2 construct: soluble, human recombinant NEP; purchased Prof; Crine, University of Montreal, Canada
T2 sequence (P08473 52-750 limits assumed): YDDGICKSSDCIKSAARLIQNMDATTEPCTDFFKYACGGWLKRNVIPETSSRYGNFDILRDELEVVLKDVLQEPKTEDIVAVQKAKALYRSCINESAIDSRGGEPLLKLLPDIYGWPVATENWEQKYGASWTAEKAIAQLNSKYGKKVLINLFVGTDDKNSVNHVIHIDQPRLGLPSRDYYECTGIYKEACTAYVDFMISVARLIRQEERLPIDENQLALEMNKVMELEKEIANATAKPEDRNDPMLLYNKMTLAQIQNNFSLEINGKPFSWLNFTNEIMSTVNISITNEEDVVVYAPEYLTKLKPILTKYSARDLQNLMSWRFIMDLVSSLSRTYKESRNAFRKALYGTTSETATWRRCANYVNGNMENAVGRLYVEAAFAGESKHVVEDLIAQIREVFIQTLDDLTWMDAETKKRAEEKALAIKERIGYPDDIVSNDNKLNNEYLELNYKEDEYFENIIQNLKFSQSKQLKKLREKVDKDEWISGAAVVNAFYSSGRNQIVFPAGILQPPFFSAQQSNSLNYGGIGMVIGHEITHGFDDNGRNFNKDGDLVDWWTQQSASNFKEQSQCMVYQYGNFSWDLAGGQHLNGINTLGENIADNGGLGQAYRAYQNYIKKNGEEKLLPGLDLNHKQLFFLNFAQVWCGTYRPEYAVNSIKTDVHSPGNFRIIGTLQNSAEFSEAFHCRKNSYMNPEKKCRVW
Outline: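 Enzyme preincubated with test substance 15 min at 37° C, then incubated with fluorescence-quenched Mca peptide substrate 60 min at 37° C and stopped by heating to 95° C. Cleaved and intact peptide separated by reversed-phase HPLC; unquenched Mca peak area (ex 328/em 393 nm) gave % inhibition versus no-compound control, duplicates, IC50 derived.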

[4] = Plasma protein binding, equilibrium dialysis, human plasma; type: in vitro ADME; details: human plasma (10% for routine testing), 37° C., pH 7.4, 10% plasma (100% for low binders), read-out: % bound (human plasma) (converted)
Protocol: (§1) Plasma protein binding of the test substances of Formula I was measured using a validated equilibrium dialysis method. The dialysis cells consisted of two halves separated by a semi-permeable membrane slightly tensioned in between. […] Before being used, the membranes were re-hydrated by soaking in water followed by the dialysis buffer. Plasma (10% for routine testing, and 100% for compounds found to have a low protein binding) was heated to 37° C. and adjusted to pH 7.4 before use. 5 μM test compound solutions (final dimethylsulfoxide concentration 0.5%) were prepared in isotonic phosphate buffer containing rat or human plasma. The plasma-containing solution was on one side of the membrane, and the plasma-free on the other. Incubations were performed overnight (10% plasma assay), or for 2 hours (100% plasma assay) in triplicate. The cells were mounted in a drive unit that rotated the cells and ensured a uniform equilibrium was obtained. The equilibrium was temperature controlled by the drive unit being immersed in a water bath at 37° C. At the end of the equilibration time, the cells were emptied. The solutions for each batch of compounds were combined into two groups (plasma-free and plasma-containing) then cassette analysed by LC-MS/MS using two sets of calibration standards for plasma-free (7 points) and plasma-containing solutions (6 points). The percentage of protein bound compound was calculated as follows: [formula] PC=sample concentration in protein containing side; PF=sample concentration in protein free side;

[5] = Plasma protein binding, equilibrium dialysis, rat plasma; type: in vitro ADME; details: rat plasma (10% for routine testing), 37° C., pH 7.4, 10% plasma (100% for low binders), read-out: % bound (rat plasma) (converted)
Protocol: as §1

[6] = biological target: T3, hSEP (sol hu)(his)6; His6-tagged hSEP ectodomain (Homo sapiens, UniProt Q495T6); assay: Enzymatic breakdown of CNP and VIP by hSEP and its inhibition, in vitro, HPLC; type: biochemical; details: no inhibitor, 37° C.
T3 construct: His6-tagged hSEP ectodomain; His6; purchased Innogenetics, Ghent, Belgium
T3 sequence (Q495T6 49-779 limits assumed): T1 sequence (Q495T6 49-779 limits assumed)
Protocol: The inhibition of the enzymatic breakdown of CNP and VIP by the compounds used according to the invention was measured in an enzymatic in vitro assay according to the following protocol:
All test compounds were dissolved in DMSO at 10 mM and further diluted with assay buffer.
80 μl of assay buffer, 10 μl of enzyme working solution (NEP or hSEP) and 10 μl of peptide stock solution (VIP or CNP) were mixed in an Eppendorf vial and incubated for 120 min. at 37° C. The enzymatic reaction was subsequently terminated by heating to 95° C. for 5 min. After centrifugation (Heraeus Biofuge B, 3 min) the supernatant was subjected to HPLC.
70 μl of assay buffer, 10 μl of enzyme working solution (NEP or hSEP) and 10 μl of a test compound solution were mixed in an Eppendorf vial and preincubated at 37° C. for 15 minutes. Then, 10 μl of peptide stock solution (VIP or CNP) was added and the reaction mixture was incubated at 37° C. for 60 min. to allow enzymatic hydrolysis. The enzymatic reaction was subsequently terminated by heating to 95° C. for 5 min. After centrifugation (Heraeus Biofuge B, 3 min) the supernatant was subjected to HPLC. In order to separate the remaining substrate from the cleavage products, a reversed phase HPLC technique with a CC 125/4 Nucleosil 300/5 C18 RP column and a CC 8/4 Nucleosil 100/5 C18 precolumn (Macherey-Nagel, Düren, Germany) was used. 60 μl of the reaction samples were injected into the HPLC and the column was eluted at a flow rate of 1 ml/min with the following gradient:
All peptides were detected by absorbance at 214 nm (UV spectroscopy). The percentage (=%) of hydrolysis was calculated on the basis of the peak area of the undegraded peptide for an enzyme containing sample Y in correlation to a sample containing the same concentration of peptide without enzyme (blank) by the following equation: % hydrolysis=100*(blank−Y)
Basis of the calculation of % inhibition is the peak area of the undegraded peptide (VIP or CNP) for an inhibitor containing sample X in comparison to samples containing only peptide (blank) or peptide and enzyme without inhibitor (control) according to the following equation: % inhib=100*(X−control)/(blank−control)
All samples were run in duplicate and mean values were used. A solvent control (0.1% DMSO) was added to each assay run. CNP and VIP were cleaved by NEP and hSEP in vitro.

- IC50 [1]: 3 nM
- IC50 [3]: 16 nM
- fraction unbound at 5 μM [4]: 0.66
- fraction unbound at 5 μM [5]: 0.73
Compound: CCN(CCCN)C(=O)CC(CC1(C(=O)NC2CCc3ccccc3N(CC(=O)O)C2=O)CCCC1)C(=O)O (stereo not shown) [Example 80, 4-[(3-aminopropyl)(ethyl)amino]-2-{[1-({[1-(carboxymethyl)-2-oxo-2,3,4,5-tetrahydro-1H-1-benzazepin-3-yl]amino}carbonyl)cyclopentyl]methyl}-4-oxobutanoic acid]
- % substance-related inhibition of the maximum Big-ET effect on SAP vs. control [2]: −43 ± 5%

- breakdown of CNP by hSEP, degradation at t = 2 h [6]: 46%
Compound: CNP: c-type natriuretic peptide, CNP (32-53), substrate of NEP and hSEP; supplier Bachem [reference compound]

- breakdown of VIP by hSEP, degradation at t = 2 h [6]: 36%
Compound: VIP: vasoactive intestinal peptide, substrate of NEP and hSEP; supplier Bachem [reference compound]
